Usually EC50 stands for the midpoint of the concentration-response curve.

The values below come from patent publication US20260055142A1, “PHARMACEUTICAL USE OF POLYPEPTIDE IN PREPARATION OF DRUGS FOR TREATING AND/OR PREVENTING DIABETES AND OBESITY AND RELATED DISEASES THEREOF” (GUANGDONG RAYNOVENT BIOTECH CO., LTD., priority 2022, published 2026).

One test has as its target T1, GLP-1R (Homo sapiens, UniProt P43220).
T1 construct: host or cells: HEK293
Description: In vitro GLP-1R agonistic activity test (cAMP kit). It counts as cell-based. Particulars: HEK293 host cell; without 1% HSA. On the procedure:
The cell lines were constructed by Wuxi […] (Shanghai) Co., Ltd. See details in Table 1 below. [table] The test compounds were diluted at a 4-fold dilution factor in 10 points, starting from an initial concentration of 30 μM. […]

For another test, the target named is T2, GIPR (Homo sapiens, UniProt P48546).
T2 construct: host or cells: CHO
T2 sequence (P48546 22-466): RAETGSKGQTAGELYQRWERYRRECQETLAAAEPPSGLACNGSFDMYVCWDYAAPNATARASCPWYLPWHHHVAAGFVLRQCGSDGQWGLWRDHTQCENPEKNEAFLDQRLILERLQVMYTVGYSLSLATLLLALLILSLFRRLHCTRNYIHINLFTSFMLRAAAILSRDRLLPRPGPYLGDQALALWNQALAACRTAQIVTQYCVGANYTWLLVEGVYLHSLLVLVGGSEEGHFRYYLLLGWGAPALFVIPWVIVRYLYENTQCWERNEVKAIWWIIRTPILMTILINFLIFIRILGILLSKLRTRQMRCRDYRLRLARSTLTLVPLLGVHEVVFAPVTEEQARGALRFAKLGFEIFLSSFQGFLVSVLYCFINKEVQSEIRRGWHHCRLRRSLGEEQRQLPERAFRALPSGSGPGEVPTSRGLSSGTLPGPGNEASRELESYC
Description: In vitro GIPR agonistic activity test (cAMP kit). The following applies: CHO host cell; without 1% HSA. It counts as cell-based. On the procedure: The cell lines were constructed by Wuxi […] (Shanghai) Co., Ltd. See details in Table 1 below. […] The test compounds were diluted at a 4-fold dilution factor in 10 points, starting from an initial concentration of 30 μM.

The test system of another test is mouse model of obesity. The experiment in a line: In vivo efficacy test in mouse model of obesity. The following applies: high-fat diet obese mice, SC Q3d for 22 days; 10 nmol/kg (Semaglutide 30 nmol/kg). The source says: To study the weight-lowering effect of the series of polypeptides of the present application in animal model of obesity, and to compare them with the marketed counterparts, Tirzepatide and Semaglutide. Mouse model of obesity was obtained by induction with high-fat diet following the reference literature (MOLECULAR METABOLISM, 18 (2018), P3-14). The specific experimental procedure was as follows: the experimental mice were fed with high-fat diet (Research Diet D12492) for 13 weeks. […] These findings indicated the successful establishment of animal models. The test animals were divided into groups. An appropriate amount of the test samples were added into 20 mM sodium citrate buffer following the experimental protocol, and the mixture was vortexed at room temperature to obtain clear solutions of varying concentrations. The obtained solutions were frozen for further use. During the experiment, animals in the model group and the dosing group were administered by means of subcutaneous injection on the outer thighs. The dosing regimen was once every 3 days […]), for a total period of 22 days. Details were as follows. [table] […] After completing the entire dosing test cycle, the test mice were weighed, and the results were shown below.

Test [1] relates to Db/db (Lepr leptin receptor deficient) mice. Description: In vivo efficacy test in mouse model of diabetes. Particulars: for Change rate of glycosylated hemoglobin: “−” indicates decrease. The source says: To study the efficacy of the series of polypeptides of the present application in animal model of diabetes, and to compare them with the marketed counterpart Tirzepatide as reported in the literature (MOLECULAR METABOLISM, 18 (2018), P3-14). The glucose-lowering effect of Tirzepatide is much better than that of Semaglutide, and thus Semaglutide was not included in this experiment for comparison. Db/db (Lepr leptin receptor deficient) mice have typical clinical symptoms of diabetes such as extreme obesity, hyperphagia, thirst, and polyuria, and they are ideal animal model of type II diabetes. […] The test animals were divided into groups. An appropriate amount of the test samples were added into 20 mM sodium citrate buffer following the experimental protocol, and the mixture was vortexed at room temperature to obtain clear solutions of varying concentrations. The obtained solutions were frozen for further use. During the experiment, animals in the normal control group, the model group and the dosing group were administered by means of subcutaneous injection on the outer thighs. The dosing regimen was once a day (Qd), for a total period of 4 weeks. Details were as follows: [table] […] The fasting blood glucose level and the change rate of glycosylated hemoglobin level in the test mice were dynamically monitored during the experiment.

T1 sequence (P43220 24-463, species assumed): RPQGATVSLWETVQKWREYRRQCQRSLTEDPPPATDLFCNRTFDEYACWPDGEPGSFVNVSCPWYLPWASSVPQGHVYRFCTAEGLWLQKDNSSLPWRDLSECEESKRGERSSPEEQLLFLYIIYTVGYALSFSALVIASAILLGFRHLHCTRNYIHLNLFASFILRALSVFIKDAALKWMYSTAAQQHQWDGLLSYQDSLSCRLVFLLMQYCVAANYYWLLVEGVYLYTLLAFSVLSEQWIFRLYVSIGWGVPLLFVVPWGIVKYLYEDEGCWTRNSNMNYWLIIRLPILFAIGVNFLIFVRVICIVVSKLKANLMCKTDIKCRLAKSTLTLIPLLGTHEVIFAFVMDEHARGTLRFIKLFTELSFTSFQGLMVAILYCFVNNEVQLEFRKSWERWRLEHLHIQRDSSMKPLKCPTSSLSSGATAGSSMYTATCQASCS

In the case of `CC[C@H](C)[C@H](NC(=O)[C@H](CC(C)C)NC(=O)[C@H](Cc1c[nH]c2ccccc12)NC(=O)[C@H](C)NC(=O)[C@@H](NC(=O)[C@H](Cc1ccccc1)NC(=O)[C@H](C)NC(=O)[C@@H]1CCCCNC(=O)CN(C(=O)COCCOCCNC(=O)COCCOCCNC(=O)CC[C@H](NC(=O)CCCCCCCCCCCCCCCCCCC(=O)O)C(=O)O)CC(=O)NCCCC[C@H](NC(=O)[C@H](CCCCN)NC(=O)[C@H](CC(=O)O)NC(=O)[C@H](CC(C)C)NC(=O)C(C)(C)NC(=O)[C@@H](NC(=O)[C@H](CO)NC(=O)[C@H](Cc2ccc(O)cc2)NC(=O)[C@H](CC(=O)O)NC(=O)[C@H](CO)NC(=O)[C@@H](NC(=O)[C@H](Cc2ccccc2)NC(=O)[C@@H](NC(=O)CNC(=O)[C@H](CCC(=O)O)NC(=O)C(C)(C)NC(=O)[C@@H](N)Cc2ccc(O)cc2)[C@@H](C)O)[C@@H](C)O)[C@@H](C)CC)C(=O)N[C@@H](C)C(=O)N[C@@H](CCC(N)=O)C(=O)N1)C(C)C)C(=O)N[C@@H](C)C(=O)NCC(=O)NCC(=O)N1CCC[C@H]1C(=O)N[C@@H](CO)C(=O)N[C@@H](CO)C(=O)NCC(=O)N[C@@H](C)C(=O)N1CCC[C@H]1C(=O)N1CCC[C@H]1C(=O)N1CCC[C@H]1C(=O)N[C@@H](CO)C(N)=O` [WX-007], the EC50 on GLP-1R was determined as 26 pM; on GIPR, 400 pM.
Turning to Tirzepatide, the Weight change rate in the test with mouse model of obesity is recorded as −10.20%. Moreover, the Fasting blood glucose was found to be 26.7 ± 1.4 mmol/L in test [1] (Day 0, 5 nmol/kg SC Qd); 11.6 ± 1.4 mmol/L in test [1] (Day 7, 5 nmol/kg SC Qd); 12.6 ± 1.6 mmol/L in test [1] (Day 14, 5 nmol/kg SC Qd); 14.0 ± 1.4 mmol/L in test [1] (Day 21, 5 nmol/kg SC Qd). In addition, the “Change rate of glycosylated hemoglobin” value in test [1] (Day 14, 5 nmol/kg SC Qd) is on record as −15.9 ± 5.4%; in test [1] (Day 21, 5 nmol/kg SC Qd) it was −14.3 ± 4.9%; in test [1] (Day 29, 5 nmol/kg SC Qd), −10.2 ± 5.7%.
